Measurements as given in patent US20230114728A1 (Venatorx Pharmaceuticals, Inc., priority 2019, published 2023).
In brackets after ≈: the same amount, converted by molar mass.

How the values were obtained:
Test in all cases: Broth microdilution MIC in CAMHB
Type in all cases: cell-based
[1] = system: P. aeruginosa ATCC 27853; conditions: Pseudomonas aeruginosa, ATCC27853; MHB; read-out: Minimum Inhibitory Concentration, P. aeruginosa ATCC 27853
Summary of the method: (§1)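 CLSI microdilution; CAMHB; inoculum 2-8×10^5 CFU/mL from 3-5 h 37° C culture; 2-fold compound series; 16-20 h, 37° C; MIC = lowest well without visible growth.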

[2] = system: P. aeruginosa (ΔmexAB-oprM); conditions: Pseudomonas aeruginosa, read-out: Minimum Inhibitory Concentration, P. aeruginosa ΔmexAB-OprM
Summary of the method: as §1

[3] = system: A. baumannii ATCC 19606; conditions: Acinetobacter baumannii, ATCC19606; MHB; read-out: Minimum Inhibitory Concentration, A. baumannii ATCC 19606
Summary of the method: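 CLSI broth microdilution in CAMHB: 2-fold compound dilutions inoculated at 2-8×10^5 CFU/mL from 3-5 h log-phase cultures. Incubated at 37 °C for 16-20 h (Enterobacteriaceae, Pseudomonas); MIC read visually as lowest concentration without growth. Strains include hyper-permeable and efflux-deficient mutants.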

[4] = system: E. coli ATCC 25922; conditions: Escherichia coli, ATCC25922; E. coli ATCC 25922; MHB; read-out: Minimum Inhibitory Concentration, E. coli 25922
Summary of the method: as §1

[5] = system: E. coli AG100; conditions: Escherichia coli; E. coli AG100 (wild-type parent); MHB; read-out: Minimum Inhibitory Concentration, E. coli AG100
Summary of the method: as §1

[6] = system: K. pneumoniae UMM producing SHV-5 and KPC-2; conditions: Klebsiella pneumoniae, read-out: Minimum Inhibitory Concentration, K. pneumoniae UMM
Summary of the method: as §1

[7] = system: K. pneumoniae SI-117 producing VIM-1; conditions: Klebsiella pneumoniae, read-out: Minimum Inhibitory Concentration, K. pneumoniae SI-117
Summary of the method: as §1

[8] = system: P. aeruginosa ATCC 35151; conditions: Pseudomonas aeruginosa, ATCC35151; MHB; hyper-permeable strain; read-out: Minimum Inhibitory Concentration, P. aeruginosa ATCC 35151
Summary of the method: as §1

[9] = system: E. coli D22; conditions: Escherichia coli; E. coli D22 (hyper-permeable); MHB; read-out: Minimum Inhibitory Concentration, E. coli D22
Summary of the method: as §1

[10] = system: E. coli AG100A; conditions: Escherichia coli, read-out: Minimum Inhibitory Concentration, E. coli AG100A
Summary of the method: as §1

[11] = system: K. pneumoniae 848844 producing SHV-11 and KPC-2; conditions: Klebsiella pneumoniae, read-out: Minimum Inhibitory Concentration, K. pneumoniae 848844
Summary of the method: as §1

[12] = system: E. coli 901C; conditions: Escherichia coli; E. coli 901C (hyper-permeable); MHB; read-out: Minimum Inhibitory Concentration, E. coli 901C
Summary of the method: as §1

Compound	MIC [1] [µg/mL]	MIC [2] [µg/mL]	MIC [3] [µg/mL]	MIC [4] [µg/mL]	MIC [5] [µg/mL]	MIC [6] [µg/mL]	MIC [7] [µg/mL]	MIC [8] [µg/mL]	MIC [9] [µg/mL]	MIC [10] [µg/mL]	MIC [11] [µg/mL]	MIC [12] [µg/mL]
NS(=O)(=O)Nc1cccc(C(NC(=O)N2CCN(CCF)C(=O)C2=O)C(=O)N[C@H]2Cc3cccc(C(=O)O)c3OB2O)c1 (stereo partly drawn) [Example 116, (3R)-3-(2-(4-(2-fluoroethyl)-2,3-dioxopiperazine-1-carboxamido)-2-(3-(sulfamoylamino)phenyl)acetamido)-2-hydroxy-3,4-dihydro-2H-benzo[e][1,2]oxaborinine-8-carboxylic acid]	> 128	8 to 16 (≈ 12.9 to 25.8 µM)	> 128	8 to 16 (≈ 12.9 to 25.8 µM)	8 to 16 (≈ 12.9 to 25.8 µM)	32 to 64 (≈ 51.6 to 103 µM)	32 to 64 (≈ 51.6 to 103 µM)	0.5 to 1 (≈ 0.806 to 1.61 µM)	0.5 to 1 (≈ 0.806 to 1.61 µM)	2 to 4 (≈ 3.22 to 6.45 µM)	> 128	< 0.25
NCCCN1CCN(C(=O)N[C@@H](C(=O)N[C@H]2Cc3cccc(C(=O)O)c3OB2O)c2cccc(NS(N)(=O)=O)c2)C(=O)C1=O [Example 117, (R)-3-((R)-2-(4-(3-aminopropyl)-2,3-dioxopiperazine-1-carboxamido)-2-(3-(sulfamoylamino)phenyl)acetamido)-2-hydroxy-3,4-dihydro-2H-benzo[e][1,2]oxaborinine-8-carboxylic acid]	32 to 64 (≈ 50.7 to 101 µM)	2 to 4 (≈ 3.17 to 6.33 µM)	32 to 64 (≈ 50.7 to 101 µM)	32 to 64 (≈ 50.7 to 101 µM)	32 to 64 (≈ 50.7 to 101 µM)	32 to 64 (≈ 50.7 to 101 µM)	32 to 64 (≈ 50.7 to 101 µM)	< 0.25	2 to 4 (≈ 3.17 to 6.33 µM)	2 to 4 (≈ 3.17 to 6.33 µM)	32 to 64 (≈ 50.7 to 101 µM)	2 to 4 (≈ 3.17 to 6.33 µM)
NCCCN1CCN(C(=O)N[C@H](C(=O)N[C@H]2Cc3cccc(C(=O)O)c3OB2O)c2cccc(NS(N)(=O)=O)c2)C(=O)C1=O [Example 118, (R)-3-((S)-2-(4-(3-aminopropyl)-2,3-dioxopiperazine-1-carboxamido)-2-(3-(sulfamoylamino)phenyl)acetamido)-2-hydroxy-3,4-dihydro-2H-benzo[e][1,2]oxaborinine-8-carboxylic acid]	> 128	8 to 16 (≈ 12.7 to 25.3 µM)	> 128	32 to 64 (≈ 50.7 to 101 µM)	32 to 64 (≈ 50.7 to 101 µM)	32 to 64 (≈ 50.7 to 101 µM)	> 128	0.5 to 1 (≈ 0.792 to 1.58 µM)	8 to 16 (≈ 12.7 to 25.3 µM)	2 to 4 (≈ 3.17 to 6.33 µM)	> 128	2 to 4 (≈ 3.17 to 6.33 µM)
NC1(CN2CCN(C(=O)NC(C(=O)N[C@H]3Cc4cccc(C(=O)O)c4OB3O)c3cccc(NS(N)(=O)=O)c3)C(=O)C2=O)CC1 (stereo partly drawn) [Example 120, (3R)-3-(2-(4-((1-aminocyclopropyl)methyl)-2,3-dioxopiperazine-1-carboxamido)-2-(3-(sulfamoylamino)phenyl)acetamido)-2-hydroxy-3,4-dihydro-2H-benzo[e][1,2]oxaborinine-8-carboxylic acid]	> 128	8 to 16 (≈ 12.4 to 24.9 µM)	> 128	> 128	> 128	32 to 64 (≈ 49.7 to 99.5 µM)	> 128	0.5 to 1 (≈ 0.777 to 1.55 µM)	8 to 16 (≈ 12.4 to 24.9 µM)	8 to 16 (≈ 12.4 to 24.9 µM)	> 128	2 to 4 (≈ 3.11 to 6.22 µM)
O=C(O)c1c(F)ccc2c1OB(O)[C@@H](NC(=O)C(NC(=O)N1CCN(CCF)C(=O)C1=O)c1c(F)cc(O)cc1F)C2 (stereo partly drawn) [Example 129, (3R)-3-(2-(2,6-difluoro-4-hydroxyphenyl)-2-(4-(2-fluoroethyl)-2,3-dioxopiperazine-1-carboxamido)acetamido)-7-fluoro-2-hydroxy-3,4-dihydro-2H-benzo[e][1,2]oxaborinine-8-carboxylic acid]	> 128	32 to 64 (≈ 53.7 to 107 µM)	> 128	32 to 64 (≈ 53.7 to 107 µM)	32 to 64 (≈ 53.7 to 107 µM)	32 to 64 (≈ 53.7 to 107 µM)	32 to 64 (≈ 53.7 to 107 µM)	0.5 to 1 (≈ 0.839 to 1.68 µM)	2 to 4 (≈ 3.35 to 6.71 µM)	8 to 16 (≈ 13.4 to 26.8 µM)	32 to 64 (≈ 53.7 to 107 µM)	0.5 to 1 (≈ 0.839 to 1.68 µM)
CCN1CCN(C(=O)NC(C(=O)N[C@H]2Cc3ccc(F)c(C(=O)O)c3OB2O)c2c(F)cc(O)cc2F)C(=O)C1=O (stereo partly drawn) [Example 130, (3R)-3-(2-(2,6-difluoro-4-hydroxyphenyl)-2-(4-ethyl-2,3-dioxopiperazine-1-carboxamido)acetamido)-7-fluoro-2-hydroxy-3,4-dihydro-2H-benzo[e][1,2]oxaborinine-8-carboxylic acid]	> 128	32 to 64 (≈ 55.3 to 111 µM)	> 128	32 to 64 (≈ 55.3 to 111 µM)	32 to 64 (≈ 55.3 to 111 µM)	8 to 16 (≈ 13.8 to 27.7 µM)	32 to 64 (≈ 55.3 to 111 µM)	< 0.25	2 to 4 (≈ 3.46 to 6.92 µM)	8 to 16 (≈ 13.8 to 27.7 µM)	32 to 64 (≈ 55.3 to 111 µM)	< 0.25
CCN1CCN(C(=O)NC(C(=O)N[C@H]2Cc3cccc(C(=O)O)c3OB2O)c2cc(F)c(C(=O)O)cc2F)C(=O)C1=O (stereo partly drawn) [Example 137, (3R)-3-(2-(4-carboxy-2,5-difluorophenyl)-2-(4-ethyl-2,3-dioxopiperazine-1-carboxamido)acetamido)-2-hydroxy-3,4-dihydro-2H-benzo[e][1,2]oxaborinine-8-carboxylic acid]	> 128	8 to 16 (≈ 13.6 to 27.2 µM)	> 128	32 to 64 (≈ 54.4 to 109 µM)	32 to 64 (≈ 54.4 to 109 µM)	32 to 64 (≈ 54.4 to 109 µM)	> 128	0.5 to 1 (≈ 0.85 to 1.7 µM)	8 to 16 (≈ 13.6 to 27.2 µM)	8 to 16 (≈ 13.6 to 27.2 µM)	> 128	< 0.25
CCN1CCN(C(=O)NC(C(=O)N[C@H]2Cc3cccc(C(=O)O)c3OB2O)c2cc(Cl)c(C(=O)O)cc2F)C(=O)C1=O (stereo partly drawn) [Example 138, (3R)-3-(2-(4-carboxy-5-chloro-2-fluorophenyl)-2-(4-ethyl-2,3-dioxopiperazine-1-carboxamido)acetamido)-2-hydroxy-3,4-dihydro-2H-benzo[e][1,2]oxaborinine-8-carboxylic acid]	> 128	32 to 64 (≈ 52.9 to 106 µM)	> 128	32 to 64 (≈ 52.9 to 106 µM)	32 to 64 (≈ 52.9 to 106 µM)	32 to 64 (≈ 52.9 to 106 µM)	> 128	0.5 to 1 (≈ 0.827 to 1.65 µM)	2 to 4 (≈ 3.31 to 6.61 µM)	8 to 16 (≈ 13.2 to 26.5 µM)	> 128	< 0.25
CCN1CCN(C(=O)NC(C(=O)N[C@H]2Cc3cccc(C(=O)O)c3OB2O)c2cc(F)c(C(=O)O)c(F)c2)C(=O)C1=O (stereo partly drawn) [Example 141, (3R)-3-(2-(4-carboxy-3,5-difluorophenyl)-2-(4-ethyl-2,3-dioxopiperazine-1-carboxamido)acetamido)-2-hydroxy-3,4-dihydro-2H-benzo[e][1,2]oxaborinine-8-carboxylic acid]	> 128	32 to 64 (≈ 54.4 to 109 µM)	> 128	32 to 64 (≈ 54.4 to 109 µM)	32 to 64 (≈ 54.4 to 109 µM)	32 to 64 (≈ 54.4 to 109 µM)	> 128	< 0.25	2 to 4 (≈ 3.4 to 6.8 µM)	2 to 4 (≈ 3.4 to 6.8 µM)	> 128	< 0.25
